Laboratory results taken from PubChem BioAssay (NCI).
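Dose response: 5 concentrations. Exposure: 48 h. Format: 96-well plates. Endpoint: linear interpolation; highest concentration if not reached. TGI marks complete inhibition of growth.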

Tests used:
Experiment in all cases: NCI anticancer screen, dose series, 48 h
DLD-1 colon = system: DLD-1 colon
DMS 114 small cell lung = system: DMS 114 small cell lung
DMS 273 small cell lung = system: DMS 273 small cell lung
HOP-18 NSCLC = system: HOP-18 NSCLC
KM20L2 colon = system: KM20L2 colon
LXFL 529 NSCLC = system: LXFL 529 NSCLC
NCI-H23 lung = system: NCI-H23 lung
RXF-631 renal = system: RXF-631 renal
SNB-78 CNS = system: SNB-78 CNS
XF 498 CNS = system: XF 498 CNS
MOLT-4 leukemia = system: MOLT-4 leukemia
M19-MEL melanoma = system: M19-MEL melanoma

Row | Structure (SMILES) | TGI (DLD-1 colon) [µM] | TGI (DMS 114 small cell lung) [µM] | TGI (DMS 273 small cell lung) [µM] | TGI (HOP-18 NSCLC) [µM] | TGI (KM20L2 colon) [µM] | TGI (LXFL 529 NSCLC) [µM] | TGI (NCI-H23 lung) [µM] | TGI (RXF-631 renal) [µM] | TGI (SNB-78 CNS) [µM] | TGI (XF 498 CNS) [µM] | TGI (MOLT-4 leukemia) [µM] | TGI (M19-MEL melanoma) [µM]
1 | CCOC(=O)C1SC(=Nc2ccc(OC)c(OC)c2)N=C1C (stereo unspecified) | > 100 | 80.5 | > 100 | > 100 | 76.3 | > 100 | > 100 | > 100 | > 100 | 68.8 |  | 
2 | CC(C)C(=O)N1Cc2cc(Cl)cc(Cl)c2OC(=O)c2ccccc21 | > 100 | 74 | > 100 | 93.1 | 57.8 | 34.3 | > 100 | > 100 | > 100 |  | 62 | 
3 | COc1ccc(/C(=N\NC(=O)NN)C(c2ccc(OC)cc2)C2(O)C(=O)Nc3c(Cl)cc(Cl)cc32)cc1 (stereo unspecified) | > 100 | > 100 |  | > 100 | > 100 | > 100 | > 100 | > 100 | > 100 | > 100 | > 100 | > 100
4 | CC(CCC[C@H](C)CO)[C@H]1[C@@H](O)C(O)C2[C@@H]3C[C@@H](O)C4(O)C[C@@H](O)CC[C@]4(C)C3CC[C@@]21C (stereo partly specified) | > 100 | > 100 | > 100 | > 100 | > 100 | > 100 | > 100 |  | > 100 | > 100 | > 100 | > 100
5 | CCOC(=O)Cn1c2ccccc2c(=O)c2cc(C)c(C)c(C#N)c21 | > 100 |  | > 100 | > 100 | > 100 | > 100 | > 100 | > 100 | > 100 | 97.2 | > 100 | > 100
6 | COc1cc(OC)c(C(=O)c2cccs2)cc1N | > 100 | > 100 | > 100 | 86.8 | > 100 | > 100 | > 100 | > 100 | > 100 | > 100 | > 100 | > 100
7 | CCOC(=O)CC1COc2ccc3c(c21)OCO3 (stereo unspecified) | > 100 | > 100 | > 100 | > 100 | > 100 | > 100 | > 100 |  | > 100 | > 100 | > 100 | > 100
8 | N#Cc1ccc(Cc2ccccn2)cc1Cl | > 100 | > 100 | > 100 | > 100 |  | > 100 | > 100 | > 100 | > 100 |  | > 100 | > 100
